Measured values reported in patent US20240383905A1, “FGFR INHIBITORS AND METHODS OF USE THEREOF” (3H PHARMACEUTICALS CO., LTD., priority 2021, published 2024).
Like-named read-outs stand apart in the source and are kept apart here.

What was measured:
[1] = system: SNU16 cells; assay: SNU16 Cancer Cell Line Proliferation Assay (CellTiter-Glo); assay type: cell-based
Method in brief: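 SNU16 cells at 5000/well exposed to 9-point 3-fold serial compound dilutions (DMSO control) for 72 h at 37 °C, 5% CO2. Viability read by luminescence; IC50 calculated from dose-response.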

[2] = target: T1, FGFR3 (Homo sapiens, UniProt P22607); assay: FGFR3 Biochemical Caliper Assay (KinEASE-TK kit); details: ratio FGFR3/FGFR2 of the biochemical assay
T1 construct: purchased Carna 08-135
Method in brief: (§1)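 KinEASE-TK HTRF readout: enzyme at 0.2 nM (FGFR1, FGFR3) preincubated 10 min at RT with 10-point 3-fold compound dilutions before TK-substrate/ATP start.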

[3] = target: T2, FGFR1 (Homo sapiens, UniProt P11362); assay: FGFR1 Biochemical Caliper Assay (KinEASE-TK kit); details: ratio FGFR1/FGFR2 of the biochemical assay
T2 construct: purchased Carna 08-133
Method in brief: as §1

[4] = target: T3, FGFR2 (Homo sapiens, UniProt P21802); assay: FGFR2 Biochemical Caliper Assay (KinEASE-TK kit); details: 0.07 nM FGFR2; compound incubated with protein 10 min, reaction 45 min at RT; read-out: FGFR2 Cliper IC50
T3 construct: purchased Carna 08-134
T3 sequence (P21802 22-821): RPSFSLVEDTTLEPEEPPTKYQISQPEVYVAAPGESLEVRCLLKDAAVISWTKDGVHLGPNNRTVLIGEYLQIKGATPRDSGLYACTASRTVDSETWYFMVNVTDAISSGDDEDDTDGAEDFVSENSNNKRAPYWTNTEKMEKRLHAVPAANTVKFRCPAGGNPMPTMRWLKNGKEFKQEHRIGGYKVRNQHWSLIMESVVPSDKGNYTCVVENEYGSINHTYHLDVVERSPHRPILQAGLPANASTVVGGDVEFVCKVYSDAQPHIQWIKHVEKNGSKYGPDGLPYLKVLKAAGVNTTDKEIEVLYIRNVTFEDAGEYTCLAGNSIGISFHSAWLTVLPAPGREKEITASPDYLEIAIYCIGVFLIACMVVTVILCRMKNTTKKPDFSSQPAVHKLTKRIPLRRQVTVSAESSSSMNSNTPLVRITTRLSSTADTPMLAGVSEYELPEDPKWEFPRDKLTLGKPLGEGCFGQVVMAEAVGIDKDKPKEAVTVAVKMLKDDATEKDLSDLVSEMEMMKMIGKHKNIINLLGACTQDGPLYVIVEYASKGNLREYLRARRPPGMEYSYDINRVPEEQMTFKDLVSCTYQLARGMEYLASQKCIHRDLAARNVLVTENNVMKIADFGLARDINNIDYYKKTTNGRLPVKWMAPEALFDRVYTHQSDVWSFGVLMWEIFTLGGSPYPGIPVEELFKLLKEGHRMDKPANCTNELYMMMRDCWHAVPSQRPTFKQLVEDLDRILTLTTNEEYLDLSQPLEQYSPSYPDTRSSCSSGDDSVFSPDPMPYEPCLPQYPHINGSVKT

T1 sequence (P22607 23-806): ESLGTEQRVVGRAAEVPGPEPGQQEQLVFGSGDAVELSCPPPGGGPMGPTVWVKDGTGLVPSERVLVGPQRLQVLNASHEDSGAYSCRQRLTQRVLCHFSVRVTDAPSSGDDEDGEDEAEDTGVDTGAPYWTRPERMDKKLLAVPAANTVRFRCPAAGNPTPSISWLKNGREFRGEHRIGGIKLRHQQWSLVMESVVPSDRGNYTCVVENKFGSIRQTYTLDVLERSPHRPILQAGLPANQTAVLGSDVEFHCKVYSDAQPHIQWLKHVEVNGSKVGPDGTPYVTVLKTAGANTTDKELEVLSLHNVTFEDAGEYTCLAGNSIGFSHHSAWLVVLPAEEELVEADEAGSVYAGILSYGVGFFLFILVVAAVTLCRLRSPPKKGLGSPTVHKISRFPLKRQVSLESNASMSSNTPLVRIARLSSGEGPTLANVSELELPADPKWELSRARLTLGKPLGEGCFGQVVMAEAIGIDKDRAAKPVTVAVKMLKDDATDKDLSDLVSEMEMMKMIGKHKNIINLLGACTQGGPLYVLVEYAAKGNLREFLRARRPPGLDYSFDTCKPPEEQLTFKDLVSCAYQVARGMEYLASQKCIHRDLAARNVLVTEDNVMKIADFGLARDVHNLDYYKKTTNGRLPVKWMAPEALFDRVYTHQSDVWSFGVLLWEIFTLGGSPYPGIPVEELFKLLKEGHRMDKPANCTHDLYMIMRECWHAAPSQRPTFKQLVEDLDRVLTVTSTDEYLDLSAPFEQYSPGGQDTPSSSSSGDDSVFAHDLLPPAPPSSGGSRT
T2 sequence (P11362 22-822): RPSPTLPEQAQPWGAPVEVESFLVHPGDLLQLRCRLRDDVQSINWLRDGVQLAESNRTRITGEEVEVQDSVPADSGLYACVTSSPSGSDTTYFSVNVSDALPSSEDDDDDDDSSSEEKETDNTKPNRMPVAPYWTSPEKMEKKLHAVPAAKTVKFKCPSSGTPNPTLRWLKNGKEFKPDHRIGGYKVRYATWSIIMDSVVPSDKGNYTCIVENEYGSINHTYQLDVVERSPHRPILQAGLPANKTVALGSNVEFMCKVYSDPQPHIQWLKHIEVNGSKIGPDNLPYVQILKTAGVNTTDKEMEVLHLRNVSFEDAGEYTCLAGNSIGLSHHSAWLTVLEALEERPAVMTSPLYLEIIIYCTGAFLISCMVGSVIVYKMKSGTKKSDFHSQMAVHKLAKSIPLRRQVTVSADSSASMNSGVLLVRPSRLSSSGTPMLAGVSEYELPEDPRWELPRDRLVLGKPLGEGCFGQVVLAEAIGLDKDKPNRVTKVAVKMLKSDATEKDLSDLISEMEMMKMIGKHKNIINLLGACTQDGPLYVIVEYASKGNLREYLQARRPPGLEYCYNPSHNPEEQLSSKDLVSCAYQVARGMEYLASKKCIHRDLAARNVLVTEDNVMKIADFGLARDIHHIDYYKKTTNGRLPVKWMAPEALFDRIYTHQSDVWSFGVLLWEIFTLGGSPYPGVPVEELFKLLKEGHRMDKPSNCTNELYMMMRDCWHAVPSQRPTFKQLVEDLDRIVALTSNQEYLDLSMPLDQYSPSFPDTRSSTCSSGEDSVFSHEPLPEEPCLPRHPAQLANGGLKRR

SMILES	IC50 ([1]; Homo sapiens, SNU-16, 72 h)	Selectivity FGFR3/FGFR2 [2]	Selectivity FGFR1/FGFR2 [3]	IC50 [4]	IC50 ([1]; 72 h, read-out: Cell SNU-16 IC50)
C=CC(=O)Nc1ccc(-c2c(-c3ccc(C(=O)NC4CCC4)c(OC)c3)c3c(N)ncc(C#N)c3n2CCOC)cc1 [Compound 59, 4-(2-(4-acrylamidophenyl)-4-amino-7-cyano-1-(2-methoxyethyl)-1H-pyrrolo[3,2-c]pyridin-3-yl)-N-cyclobutyl-2-methoxybenzamide]	≤ 10 nM	A (Selectivity of FGFR3/FGFR2 less than 150 but greater than or equal to 100)	A (Selectivity of FGFR1/FGFR2 less than 500 but greater than or equal to 300)	< 5 nM	–
C=CC(=O)Nc1ccc(-c2nn3ncnc(N)c3c2-c2ccc(C(=O)NC3CCC3)c(OC)c2)cc1 [Compound 26, 4-(6-(4-acrylamidophenyl)-4-aminopyrazolo[5,1-f][1,2,4]triazin-5-yl)-N-cyclobutyl-2-methoxybenzamide]	≤ 10 nM	B (Selectivity of FGFR3/FGFR2 less than 100 but greater than or equal to 25)	A (Selectivity of FGFR1/FGFR2 less than 500 but greater than or equal to 300)	< 5 nM	–
C=CC(=O)Nc1ccc(-c2c(-c3ccc(C(=O)NCC(F)(F)F)c(OC)c3)c3c(N)ncc(C#N)c3n2CCOC)cc1 [Compound 318, 4-(2-(4-acrylamidophenyl)-4-amino-7-cyano-1-(2-methoxyethyl)-1H-pyrrolo[3,2-c]pyridin-3-yl)-2-methoxy-N-(2,2,2-trifluoroethyl)benzamide]	≤ 10 nM	A (Selectivity of FGFR3/FGFR2 less than 150 but greater than or equal to 100)	C (Selectivity of FGFR1/FGFR2 less than 200 but greater than or equal to 100)	< 5 nM	–
C=C(F)C(=O)Nc1ccc(-c2nn3ncnc(N)c3c2-c2ccc(C(=O)NCC(F)(F)F)c(OC)c2)c(F)c1 [Compound 100, 4-(4-amino-6-(2-fluoro-4-(2-fluoroacrylamido)phenyl)pyrazolo[5,1-f][1,2,4]triazin-5-yl)-2-methoxy-N-(2,2,2-trifluoroethyl)benzamide]	≤ 10 nM	A+ (Selectivity of FGFR3/FGFR2 greater or equal to 150)	A+ (Selectivity of FGFR1/FGFR2 greater or equal to 500)	< 5 nM	–
C=CC(=O)Nc1ccc(-c2nn3ncnc(N)c3c2-c2ccc(C(=O)NC3CCC3)c(C)c2)cc1 [Compound 74, 4-(6-(4-acrylamidophenyl)-4-aminopyrazolo[5,1-f][1,2,4]triazin-5-yl)-N-cyclobutyl-2-methylbenzamide]	≤ 10 nM	A+ (Selectivity of FGFR3/FGFR2 greater or equal to 150)	C (Selectivity of FGFR1/FGFR2 less than 200 but greater than or equal to 100)	> 10 nM	–
C=C(F)C(=O)Nc1ccc(-c2nn3ncnc(N)c3c2-c2ccc(C(=O)NC3CC3)c(OC)c2)c(F)c1 [Compound 153, 4-(4-amino-6-(2-fluoro-4-(2-fluoroacrylamido)phenyl)pyrazolo[5,1-f][1,2,4]triazin-5-yl)-N-cyclopropyl-2-methoxybenzamide]	≤ 10 nM	A+ (Selectivity of FGFR3/FGFR2 greater or equal to 150)	A+ (Selectivity of FGFR1/FGFR2 greater or equal to 500)	< 5 nM	–
C=C(F)C(=O)Nc1ccc(-c2nn3ncnc(N)c3c2-c2ccc(C(=O)NC3CC3)c(OC)c2)c(Cl)c1 [Compound 199, 4-(4-amino-6-(2-chloro-4-(2-fluoroacrylamido)phe-nyl)pyrazolo[5,1-f][1,2,4]triazin-5-yl)-N-cyclopropyl-2-methoxybenzamide]	≤ 10 nM	A+ (Selectivity of FGFR3/FGFR2 greater or equal to 150)	A+ (Selectivity of FGFR1/FGFR2 greater or equal to 500)	< 5 nM	–
C=C(C)C(=O)Nc1ccc(-c2c(-c3ccc(Oc4nccc(C)n4)cc3)c3c(N)ncc(C#N)c3n2C)c(C)c1 [Compound 488, N-(4-(4-amino-7-cyano-1-methyl-3-(4-((4-methylpyrimidin-2-yl)oxy)phenyl)-1H-pyrrolo[3,2-c]pyridin-2-yl)-3-methylphenyl)methacrylamide]	≤ 10 nM	A+ (Selectivity of FGFR3/FGFR2 greater or equal to 150)	A+ (Selectivity of FGFR1/FGFR2 greater or equal to 500)	> 10 nM	–
C=CC(=O)Nc1ccc(-c2nn3ncnc(N)c3c2-c2ccc(C(=O)NCC(F)F)c(OC)c2)cc1 [Compound 196, 4-(6-(4-acrylamidophenyl)-4-aminopyrazolo[5,1-f][1,2,4]triazin-5-yl)-N-(2,2-difluoroethyl)-2-methoxybenzamide]	≤ 10 nM	A+ (Selectivity of FGFR3/FGFR2 greater or equal to 150)	A (Selectivity of FGFR1/FGFR2 less than 500 but greater than or equal to 300)	< 5 nM	–
C=CC(=O)Nc1ccc(-c2c(-c3ccc(C(=O)NCC(F)(F)F)c(OC)c3)c3c(N)ncc(C#N)c3n2C2CC2)cc1 [Compound 351]	≤ 10 nM	B (Selectivity of FGFR3/FGFR2 less than 100 but greater than or equal to 25)	A+ (Selectivity of FGFR1/FGFR2 greater or equal to 500)	< 5 nM	–
C=C(F)C(=O)Nc1ccc(-c2nn3ncnc(N)c3c2-c2ccc(Oc3cccc(C)n3)c(F)c2)c(C)c1 [Compound 439, N-(4-(4-amino-5-(3-fluoro-4-((6-methylpyridin-2-yl)oxy)phenyl)pyrazolo [5,1-f][1,2,4]triazin-6-yl)-3-methylphenyl)-2-fluoroacrylamide]	≤ 10 nM	B (Selectivity of FGFR3/FGFR2 less than 100 but greater than or equal to 25)	C (Selectivity of FGFR1/FGFR2 less than 200 but greater than or equal to 100)	< 5 nM	–
C#CC(=O)Nc1ccc(-c2nn3ncnc(N)c3c2-c2ccc(Oc3cccc(C)n3)c(F)c2)cc1 [Compound 410]	> 50 nM	A (Selectivity of FGFR3/FGFR2 less than 150 but greater than or equal to 100)	A (Selectivity of FGFR1/FGFR2 less than 500 but greater than or equal to 300)	< 5 nM	–
C=CC(=O)Nc1ccc(-c2c(-c3ccc(C(=O)NC4CC4)c(OC)c3)c3c(N)ncc(C#N)c3n2C)cc1 [Compound 105]	≤ 10 nM	A (Selectivity of FGFR3/FGFR2 less than 150 but greater than or equal to 100)	A+ (Selectivity of FGFR1/FGFR2 greater or equal to 500)	< 5 nM	–
C=C(C)C(=O)Nc1ccc(-c2c(-c3ccc(Oc4cccc(C)n4)cc3)c3c(N)ncc(C#N)c3n2C)c(F)c1 [Compound 468, N-(4-(4-amino-7-cyano-1-methyl-3-(4-((6-methylpyridin-2-yl)oxy)phenyl)-1H-pyrrolo[3,2-c]pyridin-2-yl)-3-fluorophenyl) methacrylamide]	≤ 10 nM	A+ (Selectivity of FGFR3/FGFR2 greater or equal to 150)	A+ (Selectivity of FGFR1/FGFR2 greater or equal to 500)	> 10 nM	–
C=C(C)C(=O)Nc1ccc(-c2c(-c3ccc(Oc4nccc(C)n4)cc3)c3c(N)ncc(C#N)c3n2C)c(F)c1 [Compound 467, N-(4-(4-amino-7-cyano-1-methyl-3-(4-((4-methylpyrimidin-2-yl)oxy)phenyl)-1H-pyrrolo[3,2-c]pyridin-2-yl)-3-fluorophenyl) methacrylamide]	≤ 10 nM	A+ (Selectivity of FGFR3/FGFR2 greater or equal to 150)	A+ (Selectivity of FGFR1/FGFR2 greater or equal to 500)	> 10 nM	–
C=C(F)C(=O)Nc1ccc(-c2nn3ncnc(N)c3c2-c2ccc(C(=O)NC3(C(F)(F)F)CC3)c(OC)c2)c(OC)c1 [Compound 415]	≤ 10 nM	B (Selectivity of FGFR3/FGFR2 less than 100 but greater than or equal to 25)	B (Selectivity of FGFR1/FGFR2 less than 300 but greater than or equal to 200)	< 5 nM	–
C=CC(=O)Nc1ccc(-c2c(-c3ccc(C(=O)NC4CCC4)cc3)c3c(N)ncc(C#N)c3n2C)cc1 [Compound 65, 4-(2-(4-acrylamidophenyl)-4-amino-7-cyano-1-methyl-1H-pyrrolo[3,2-c]pyridin-3-yl)-N-cyclobutylbenzamide]	≤ 10 nM	A+ (Selectivity of FGFR3/FGFR2 greater or equal to 150)	A (Selectivity of FGFR1/FGFR2 less than 500 but greater than or equal to 300)	< 5 nM	–
C=C(F)C(=O)Nc1ccc(-c2nn3ncnc(N)c3c2-c2ccc(C(=O)NC34CC(C3)C4)c(OC)c2)c(OC)c1 [Compound 426, 4-(4-amino-6-(4-(2-fluoroacrylamido)-2-methoxyphenyl)pyrazolo[5,1-f][1,2,4]triazin-5-yl)-N-(bicyclo[1.1.1]pentan-1-yl)-2-methoxybenzamide]	≤ 10 nM	A (Selectivity of FGFR3/FGFR2 less than 150 but greater than or equal to 100)	A+ (Selectivity of FGFR1/FGFR2 greater or equal to 500)	< 5 nM	–
C=C(F)C(=O)Nc1ccc(-c2nn3ncnc(N)c3c2-c2ccc(C(=O)NCC3(C(F)(F)F)CC3)c(OC)c2)c(F)c1 [Compound 358, 4-(4-amino-6-(2-fluoro-4-(2-fluoroacrylamido)phenyl)pyrazolo[5,1-f] [1,2,4]triazin-5-yl)-2-methoxy-N-((1-(trifluoromethyl)cyclo-propyl)methyl) benzamide]	–	A (Selectivity of FGFR3/FGFR2 less than 150 but greater than or equal to 100)	A+ (Selectivity of FGFR1/FGFR2 greater or equal to 500)	< 5 nM	≤ 10 nM
